Measurements taken from patent publication US11485747B2, “Diphenylmethane protective agent” (priority 2016, dated 2022).
Values after ≈ are worked out from the molar mass of the structure shown. Where a SMILES comes first, the peptide text is derived from it.

Experiment: physchem
Format: physicochemical
Experimental: Peptide used as model: H-Gly-Gly-Gly-NH2
H-Gly-Gly-Gly-NH2 and H-Gly-Gly-Gly-NH-(TIPS2-Dpm) were synthesized, CPME (cyclopentyl methyl ether) was saturated with each of the compounds at 25° C., and the solubility was measured.

Structure (SMILES) | solubility [mM] | increase in solubility
NCC(=O)NCC(=O)NCC(N)=O [H-Gly-Gly-Gly-NH2, reference compound] (H-Gly-Gly-Gly-NH2) | 0.039 (≈ 0.00734 mg/mL) | –
CC(C)[Si](OCCCCCCCCCCCOc1ccc(C(NC(=O)CNC(=O)CNC(=O)CN)c2ccc(OCCCCCCCCCCCO[Si](C(C)C)(C(C)C)C(C)C)cc2)cc1)(C(C)C)C(C)C [H-Gly-Gly-Gly-NH-(TIPS2-Dpm)] | 426 (≈ 443 mg/mL) | ≥ 10,000 fold
